{"source": "paper PMC8599359", "about": "(Molecular Neurobiology, 2021)", "key": {"MMP-9": {"biological_target": "MMP-9 (Homo sapiens, UniProt P14780)", "sequence (P14780 94-707)": "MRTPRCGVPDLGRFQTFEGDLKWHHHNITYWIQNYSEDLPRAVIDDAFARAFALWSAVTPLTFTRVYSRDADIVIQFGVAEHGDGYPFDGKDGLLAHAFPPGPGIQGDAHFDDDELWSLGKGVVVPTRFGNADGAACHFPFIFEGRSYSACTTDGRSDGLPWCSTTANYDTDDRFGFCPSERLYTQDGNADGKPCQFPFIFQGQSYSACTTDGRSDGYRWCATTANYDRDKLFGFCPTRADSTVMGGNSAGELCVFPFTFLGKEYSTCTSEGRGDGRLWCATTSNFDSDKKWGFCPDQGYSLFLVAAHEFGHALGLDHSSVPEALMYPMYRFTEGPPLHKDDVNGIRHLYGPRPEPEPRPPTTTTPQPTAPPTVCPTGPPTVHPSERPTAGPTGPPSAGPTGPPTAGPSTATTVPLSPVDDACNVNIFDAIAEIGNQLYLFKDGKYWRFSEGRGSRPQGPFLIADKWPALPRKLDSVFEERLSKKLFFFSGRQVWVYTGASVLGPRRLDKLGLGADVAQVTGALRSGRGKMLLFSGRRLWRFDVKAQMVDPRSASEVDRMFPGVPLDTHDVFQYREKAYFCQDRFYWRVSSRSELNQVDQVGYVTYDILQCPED", "assay": "Gelatin zymography of medium of PMA-stimulated THP-1 cells", "format": "cell-based", "design": "endogenous in cells; host or cells: PMA-stimulated THP-1 cells, culture medium", "conditions": "100 µM, 18 h, compared to controls", "protocol": "THP-1 cells were plated in 12-well plates at a density of 1 × 10^6 cells per well. First, THP-1 were treated with phorbol-12-myristate-13-acetate (PMA) for 24 h to promote the differentiation of cells into macrophages and stimulate MMP secretion. […] For each treatment, biological triplicate samples were utilized. Following treatment, cell medium was collected from each well and centrifuged at 800 × g for 10 min at 4 °C to remove any cell debris. Collected samples were stored at − 80 °C for further analysis. A 10% SDS–polyacrylamide gel containing 0.1% gelatin was loaded with 3 µg of protein from cell medium for gelatin zymography. In parallel, second 10% SDS–polyacrylamide gel was used to assess equal protein loading. In addition, recombinant human MMP-2 and MMP-9 (10 ng each) were loaded as standards (EMD Millipore, Burlington, MA). Gel ran at 60 V until the loading dye reached the bottom of the gel. After the run, the gelatin gel was washed with water for 15 min and incubated in renaturation buffer [2.5% (v/v) Triton X-100 in Milli-Q water] for 60 min at room temperature. The renaturation buffer was replaced with a fresh renaturation buffer at the interval of 30 min. […] Relative activity of MMPs was measured by quantitating band density by ImageJ software and normalized with respective standard."}, "[1]": {"assay": "Embryo phenotype assessments", "format": "in vivo, mouse", "conditions": "female, C3H/HeJ, mouse, in vivo, oral; GD 16.5, 50 mg/kg/day; read-out: Total viable embryos (%)", "description": "(§1) For all animal experiments, C3H/HeJ (10–12 weeks of age, male and female) were purchased from the Jackson Laboratory (Bar Harbor, ME), and were housed in microisolator cages containing autoclaved corncob bedding, and maintained on a 12‐h light‐dark cycle in climate‐controlled laboratory animal facilities approved by the University of Nebraska Medical Center Institutional Animal Care and Use Committee (IACUC). Mice were given free access to irradiated rodent feed (TD. 180,911, Envigo Teklad diet, Madison, WI) and sterile water. Animals were acclimated to the environment for approximately 7–14 days to determine that they were healthy based on observed behavior and weight gain. A female was placed with a male overnight for the purpose of timed matings. The following morning males were removed from the cages and positive vaginal plugs were identified. […] The time of conception was considered to be midnight on the evening of the mating. Treatment of plugged females was started at the morning of the day of plug detection (gestation day (GD) 0.5). […] Pregnant dams were randomly assigned to DTG or vehicle (control) group. Weight gain in dams was measured on GD 0.5, 5.5, 10.5, and 15.5. At GD 16.5, dams were humanely euthanized, and embryos and placenta were harvested. Embryos were evaluated for NTDs. At the time of harvest, the total number of implants (litter size, resorption rates, or viable embryos) was recorded for each pregnancy. Further, whole brain tissues from normal viable embryos were isolated and processed for examination of MMP expression and activity."}, "[2]": {"test_system": "pregnant C3H/HeJ mice, embryos", "assay": "Embryo phenotype assessments", "format": "in vivo, mouse", "description": "as §1"}, "[3]": {"assay": "PK and BD of DTG during pregnancy", "format": "in vivo, mouse", "conditions": "for Kp: C3H/HeJ, mouse, oral, 50 mg/kg", "description": "Drug administration was started at the day of plug detection (GD 0.5) and continued up to the day of birth of pups. Blood samples were collected from dams into heparinized tubes by cheek puncture (submandibular vein) using a 5-mm lancet (MEDIpoint, Inc., Mineola, NY) at GD 8.5 and 16.5 and postnatal days (PND) 4, 12, and 21 for plasma collection. […] Each sample (plasma or tissue) evaluated for DTG levels was randomly selected from distinct litters.\nDTG was purchased from BOC Sciences (Shirley, NY). […]\nPK and BD of DTG during pregnancy\nDTG levels were quantitated in plasma, and tissue homogenates by ultraperformance liquid chromatography tandem mass spectrometry (UPLC-MS/MS). […]\nml of acetonitrile (ACN) and 10 µl of internal standard (IS) solution were added to 2 5 µl of plasma.\nDTG-d3 at a final concentration of 50 ng/m l ser ved as the IS. Samples were vortexed and centrifuged at 17,000×g for 10 min at 4 °C. Supernatants were dried using a speed- vac and reconstituted in 100 µl 50% (v/v) ACN in water. The samples were vortexed and centrifuged at […]\nanalysis, 50– 200 mg of tissue (placenta, fetal brain) was homogenized in 9 volumes of 90% (v/v) methanol (MeOH) in water using a Qiagen TissueLyzer II (Valencia, CA). Subsequently, 280 µl o f MeOH, 10 µl of 80% (v/v) MeOH in water, and 10 µl IS were added to 100 µl of tissue homogenate.\nSamples were then vortexed, left for 5 min on ice and centrifuged at 17,000 × g and 4 °C for 15 min. Twenty µl of supernatant was mixed with 80 µl of 50% (v/v) ACN in water. The samples were centrifuged at 17,000 × g at 4 °C f or 10 m in and the supernatant was used for analysis. Standard"}, "[4]": {"conditions": "GD 16.5, 50 mg/kg/day, of 103 viable"}, "[5]": {"conditions": "GD 16.5, 50 mg/kg/day, of 130 implants"}}, "data": [{"smiles": "C[C@@H]1CCO[C@H]2Cn3cc(C(=O)NCc4ccc(F)cc4F)c(=O)c(O)c3C(=O)N12", "note": "[DTG, Dolutegravir]", "values": [{"measurement": "Relative activity of pro form of MMP-9", "setting": "MMP-9", "result": "significantly decreased"}, {"measurement": "viability", "setting": "[1]", "result": 79.2, "unit": "%"}, {"measurement": "maternal body weight gain during gestation", "setting": "[2]; 50 mg/kg/day oral GD 0.5-15.5, DTG vs control", "result": "No differences"}, {"measurement": "Abnormal/litter", "setting": "[2]; GD 16.5, 50 mg/kg/day", "result": 0.05}, {"measurement": "Implants/litter (mean litter size)", "setting": "[2]; GD 16.5, 50 mg/kg/day", "result": 7.6}, {"measurement": "Resorptions/litter", "setting": "[2]; GD 16.5, 50 mg/kg/day", "result": 1.5}, {"measurement": "Total resorptions (%)", "setting": "[2]; GD 16.5, 50 mg/kg/day", "result": 20.76, "unit": "%"}, {"measurement": "Viable embryos/litter", "setting": "[2]; GD 16.5, 50 mg/kg/day", "result": 6.05}, {"measurement": "Total implants", "setting": "[2]; GD 16.5, 50 mg/kg/day, 17 litters", "result": 130}, {"measurement": "Viable embryos abnormal, exencephaly (number)", "setting": "[2]; [4]", "result": 1}, {"measurement": "Viable embryos normal (number)", "setting": "[2]; [4]", "result": 102}, {"measurement": "Total resorptions (number)", "setting": "[2]; [5]", "result": 27}, {"measurement": "Total viable embryos (number)", "setting": "[2]; [5]", "result": 103}, {"measurement": "plasma drug levels in pregnant dams relative to maximal DTG concentration (Cmax) in human plasma at therapeutic doses", "setting": "[3]; 50 mg/kg daily", "result": 10, "unit": "×"}, {"measurement": "Kp", "setting": "[3]; embryo brain / dam plasma, GD 16.5", "result": 0.024}, {"measurement": "Kp", "setting": "[3]; pup brain / dam plasma, PND 4", "result": 0.038}, {"measurement": "DTG concentration in plasma of dams", "setting": "[3]; GD 8.5, 50 mg/kg daily oral gavage from GD 0.5", "result": "38,628.63 ± 4855.53 ng/mL"}, {"measurement": "ratio of embryo brain DTG levels to placenta DTG levels", "setting": "[3]; GD 16.5", "result": 0.18}, {"measurement": "DTG concentration in placental tissue", "setting": "[3]; GD 16.5, 50 mg/kg daily oral", "result": "3528.04 ± 316.56", "unit": "ng/g"}, {"measurement": "DTG concentration in plasma of dams", "setting": "[3]; GD 16.5, 50 mg/kg daily oral gavage from GD 0.5", "result": "27,296.3 ± 2701.15 ng/mL"}, {"measurement": "DTG concentration in embryonic brain tissue", "setting": "[3]; GD 16.5, 50 mg/kg daily oral to dam", "result": "663.6 ± 75.13", "unit": "ng/g"}, {"measurement": "DTG concentration in brain tissue of pups", "setting": "[3]; PND 4", "result": "48.1 ± 2.35", "unit": "ng/g"}, {"measurement": "DTG concentration in plasma of dams", "setting": "[3]; PND 4, dosing stopped at birth of pups", "result": "1244.2 ± 623.20", "unit": "ng/mL"}, {"measurement": "DTG concentration in plasma of dams", "setting": "[3]; PND 12, dosing stopped at birth of pups", "result": "48.95 ± 7.39", "unit": "ng/mL"}, {"measurement": "DTG concentration in plasma of dams", "setting": "[3]; PND 21, dosing stopped at birth of pups", "result": "21.97 ± 2.42", "unit": "ng/mL"}, {"measurement": "DTG level in pup's brain predicted from dam plasma/embryo brain ratio (detection limit)", "setting": "[3]; PND 28, after cessation of dosing at birth", "result": "< 0.1", "unit": "ng/g"}, {"measurement": "Kp", "setting": "[3]; female, placenta / dam plasma, GD 16.5", "result": 0.12}]}]}
